Laboratory results published in patent EP3300716A1, “BIOFILM FORMATION INHIBITOR” (Riken Vitamin Co., Ltd., priority 2015, dated 2016).
“Also recorded” adds a separate entry of the source.

Legend:
[1] = system: Candida albicans NBRC 1594; assay: Evaluation of biofilm formation inhibitory effect (96-well microplate static culture, crystal violet staining, O.D. 600); assay type: cell-based; conditions: class by 50% inhibitory concentration, threshold 20 ppm
Procedure: A potato dextrose agar (manufactured by Difco) was sterilized by autoclaving at 121°C for 15 minutes, added to a sterilized culture dish, and solidified to prepare an agar plate. A cryopreserved test fungus was spread on this agar plate and cultured at 30°C for 2 days. A yeast nitrogen base with 2% glucose (manufactured by Difco) was diluted 10-fold and sterilized by autoclaving at 121°C for 15 minutes. Twenty milliliters of this sterilized medium was placed into a conical flask with a baffle, and one loop of the agar-cultured test fungus was inoculated into the conical flask. Preculture was performed at 30°C with agitation at 150 rpm for 24 hours. Then, the fungal cells were collected by centrifugation (4700 rpm, 10 minutes, 20°C) . The collected fungal cells were washed with 20 mL of physiological saline and collected by centrifugation again (4700 rpm, 10 minutes, 20°C) . The collected fungal cells were resuspended in 10 mL of a Sabouraud-dextrose broth (liquid medium which contained 1.0% by mass of peptone and 4.0% by mass of glucose and was adjusted to a pH of 5.7 with 1 N hydrochloric acid, and hereinafter, it is called "SG medium"). This resuspension was diluted 20-fold with SG medium and used as a test fungal suspension. […] The test samples were separately dissolved in dimethyl sulfoxide (DMSO) to prepare test sample solutions. Two microliters of each test sample solution and 198 µL of the test fungal suspension were added to wells of a 96-well microplate (trade name: TC plate 96 well (Cell+); manufactured by Sarstedt) . The concentration of the test sample in the test sample solution was such that the concentration of the test sample in the combined total amount of the test sample solution and the test fungal suspension, i.e., the concentration of the test sample in the well would be 5 ppm, 25 ppm, 50 ppm or 100 ppm. Static culture was performed in the 96-well microplate containing the test sample solution and the test fungal suspension at 30°C for 2 days to allow biofilm formation to proceed in each well. […] After the static culture, the liquid in each well, including the test sample solution, the culture medium and the like, was removed, and the residue adherent to each well (cells, secretions, deposits, etc.) was regarded as a biofilm. To each well, 50 µL of a 0.01% by mass aqueous crystal violet solution (trade name, manufactured by Becton, Dickinson and Company) was added for staining of the biofilm. […] Then, 200 µL of ethanol was added to each well to elute the crystal violet bound to the biofilm, and the degree of formation of the biofilm adherent to the microplate was quantified. The quantification was performed by measuring the absorbance at 600 nm (O.D. 600) in each well with a microplate reader (model: SH-9000 Lab; manufactured by CORONA […] Co., Ltd.). The absorbance at 600 nm measured for the biofilm formed in the control well was used as the reference absorbance and assumed as 100% in terms of the degree of biofilm formation. The degree of biofilm formation for each test sample was calculated by comparison of the absorbance for the test sample with the reference absorbance. […] The graph of the logarithmic approximation curve was used to calculate the concentration of the test sample where the absorbance for the test sample is equal to 50% of the reference absorbance, that is, the degree of biofilm formation was 50% (hereinafter called "50% inhibitory concentration"). […]

[2] = system: Candida albicans NBRC 1594; assay: Evaluation of fungistatic effect (streak culture on brain heart infusion agar plate, visual observation); assay type: cell-based; conditions: for Evaluation of fungistatic effect: 1000 ppm-treated plot, agar plate, 30°C for 1 day; for fungicidal: conclusion drawn from fungal growth at 1000 ppm
Procedure: Ten milliliters of a brain heart infusion agar (manufactured by Difco) was sterilized by autoclaving at 121°C for 15 minutes and then cooled down to 50°C. To this, 100 µL of a solution of the test sample in dimethyl sulfoxide (DMSO) was added, and the mixture was stirred until homogeneous. The homogeneous mixture was added to a sterilized culture dish to prepare an agar plate. The concentration of the test sample in the agar plate was 10 ppm, 100 ppm, 300 ppm or 1000 ppm. Next, one loop of a cryopreserved test fungus (Candida albicans NBRC 1594) was streaked on each agar plate and cultured at 30°C for 1 day. […] When no growth was observed along the streak line on the agar plate, the test sample was determined to be fungistatic at the indicated concentration.

Candida biofilm = conditions: Table 2 of Patent Literature 1; cited from earlier work

diglyceryl dicaprylate [Present invention product 3]
Evaluation [1]: Excellent in inhibition of biofilm formation (When the 50% inhibitory concentration of the test sample was 20 ppm or less, the test sample was regarded as excellent in the inhibition of biofilm formation)
Evaluation of fungistatic effect [2]: Fungal growth was observed in a 1000 ppm-treated plot. No fungistatic effect.
fungicidal [2]: none of the present invention products 1, 2, 3 and 4 were fungicidal

CC(=O)N1CCN(c2ccc(OCC3COC(Cn4ccnc4)(c4ccc(Cl)cc4Cl)O3)cc2)CC1 (stereo not drawn) [Reference product 2, ketoconazole, reference compound]
Evaluation [1]: Poor in inhibition of biofilm formation (when the 50% inhibitory concentration of the test sample was more than 20 ppm, the test sample was regarded as poor in the inhibition of biofilm formation)

CCCCCCCCCCCC(=O)OCC(O)COC(=O)CCCCCCCCCCC [Reference product 1, monoglyceryl dilaurate, reference compound]
Evaluation [1]: Poor in inhibition of biofilm formation (when the 50% inhibitory concentration of the test sample was more than 20 ppm, the test sample was regarded as poor in the inhibition of biofilm formation)
Evaluation of fungistatic effect [2]: not fungistatic; also recorded: Fungal growth was observed in a 1000 ppm-treated plot. No fungistatic effect
fungicidal [2]: not fungicidal

diglyceryl dicaprylate [Present invention product 2]
Evaluation [1]: Excellent in inhibition of biofilm formation (When the 50% inhibitory concentration of the test sample was 20 ppm or less, the test sample was regarded as excellent in the inhibition of biofilm formation)
Evaluation of fungistatic effect [2]: Fungal growth was observed in a 1000 ppm-treated plot. No fungistatic effect.
fungicidal [2]: none of the present invention products 1, 2, 3 and 4 were fungicidal

glyceryl dilaurate
effective against biofilm formation (Candida biofilm): less effective against biofilm formation than glyceryl monolaurate

diglyceryl monocaprylate
effective against biofilm formation (Candida biofilm): poorly effective against biofilm formation

monoglyceryl dicaprylate [Present invention product 1]
Evaluation [1]: Excellent in inhibition of biofilm formation (When the 50% inhibitory concentration of the test sample was 20 ppm or less, the test sample was regarded as excellent in the inhibition of biofilm formation)
Evaluation of fungistatic effect [2]: Fungal growth was observed in a 1000 ppm-treated plot. No fungistatic effect.
fungicidal [2]: none of the present invention products 1, 2, 3 and 4 were fungicidal
